Measured values reported in patent EP2818472A1, “Imidazo[4,5-c]pyridine and pyrrolo[3,2-c]pyridine compounds as G-protein-coupled receptor kinase 5 (GRK5) modulators” (Max-Planck-Gesellschaft zur Förderung der Wissenschaften …, priority 2013, dated 2014).

Key:
beta-TC6 cells [1] = assay: Insulin release by beta-TC6 cells in high glucose medium, rat/mouse insulin ELISA; assay type: cell-based; conditions: 2 h; for Insulin release by beta-TC6 cells at 5µM [%]: 5 µM compound, high glucose (4.5 g/L) DMEM, % increase in regard to the DMSO control (set at 0%); for effect on the insulin release by beta-TC6 cells compared with the positive control Sunitinib: 5 µM, high glucose (4.5 g/L)
Description: After having identified the most promising compounds acting as GRK5 inhibitors and determined the IC50 values, the effect of the compounds of the example 2 on the release of insulin by beta-TC6 was determined. […] Release of insulin was detected using a rat/mouse insulin ELISA.
To order to measure the insulin released by beta-TC6 insulinoma (mouse) cells upon treatment with the compounds of the present invention, beta-TC6 insulinoma (mouse)cells were washed and incubated for 2 h in high (4.5 g/L) or low (1.125 g/L) glucose media at 37 °C. After incubation, the supernatant of the beta-TC6 insulinoma cells was diluted 1:20. The insulin release was measured with rat/mouse insulin ELISA (Merck Millipore Darmstadt, Cat. # EZRMI-13K) by following the manufacture protocol. The enzyme activity of the horseradish peroxidase of the immobilized biotinylated antibodies was monitored spectrophotometrically by the increased absorbency at 490 nm, and corrected by the absorbency at 610 nm. […] Table 3: Insulin release by beta-TC6 cells treated with the compounds of the present invention (the % values are in regard to the DMSO control, thus 30% means an increase of insulin release of 30% in regard to the physiological conditions where the insulin release is set at 0%)

C2C12 cells = assay: 2-NBDG glucose uptake in C2C12 cells, flow cytometry; assay type: cell-based; conditions: 5 µM compound, 1 h, glucose free media with 100 µM 2-NBDG
Description: To investigate the impact of the GRK5 inhibitors on glucose uptake, the fluorescent D-glucose analog 2-[N-(7-nitrobenz-2-oxa-1,3-diazol-4-yl)-amino]-2-deoxy-D-glucose (2-NBDG) was used. 2-NBDG is a fluorescently-labeled deoxyglucose analog that is commonly used to directly monitor glucose uptake by living cells. For 2-NBDG detection, cells were cultured for 1 h together with 5 µM of an inventive compound in glucose free media supplied with 100 µM 2-NBDG at 37 °C before collecting. Furthermore, as internal controls, samples of glucose free media, respectively glucose free media with test compound, were tested. Subsequently, cells were washed, trypsinized and harvested in ice-cold PBS before centrifuged at 1.6 x10^3 rpm at 4°C. Cells were analyzed by flow cytometry (FACS Calibur, BD Bioscience, respectively a BD Accuri® C6 Flow Cytometer). For evaluation, cells were gated using the side- and forward scatter SSC/FSC and quantified by excited at 488 nm and collected at […] (FL1). Table 4: 2-NBDG glucose uptake (%) by cells treated with the compounds of the present application

beta-TC6 cells [2] = assay: Insulin HTRF assay (relative activity Ar) in beta-TC6 cells; assay type: cell-based, mouse; conditions: Mus musculus, Beta-TC6, 4 h, insulin HTRF, supernatant of beta-TC6 cells, incubation with test compound at 37°C for 2, 3, 4h; read-out: Ar (relative activity)
How it was run: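 beta-TC6 cells (15k/well, seeded 24 or 48 h) washed, then exposed to compound in induction buffer (0.5% DMSO final) for 2, 3 or 4 h at 37°C.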

beta-TC6 cells [3] = assay: Glucose dependent insulin release by beta-TC6 cells in low glucose medium, rat/mouse insulin ELISA; assay type: cell-based; set-up: unit not given here; conditions: media with 1.125 mM (20 mg/dL) glucose, 2 h, compared with DMSO control

With `CN1CCN(c2ccc(Nc3cc4[nH]c(-c5cccc(N)c5)cc4cn3)cc2)CC1` [Compound 3, 2-(3-aminophenyl)-N-[4-(4-methylpiperazin-1-yl)phenyl]-1H-pyrrolo[3,2-c]pyridin-6-amine] the “Insulin release by beta-TC6 cells at 5µM [%]” value (“Insulin release … [%]” for short) (beta-TC6 cells [1]) was 15.43%, the “2-NBDG Glucose Uptake [%]” value (C2C12 cells) was 38.51% and the Emax (beta-TC6 cells [2]) was greater than 100%.

In the case of `NC(=O)c1ccc(Nc2cc3[nH]c(-c4cccc(F)c4)cc3cn2)cc1` [Compound 6, 4-[[2-(3-fluorophenyl)-1H-pyrrolo[3,2-c]pyridin-6-yl]amino]benzamide], the “Insulin release … [%]” value (beta-TC6 cells [1]) is reported as 81.25%, the “effect on the insulin release by beta-TC6 cells compared with the positive control Sunitinib” value (beta-TC6 cells [1]) is reported as “level similar to Sunitinib” and the “2-NBDG Glucose Uptake [%]” value (C2C12 cells) is reported as 45.35%. It also gave an Emax (beta-TC6 cells [2]) of 50 to 100%.

For `COc1ccc(Nc2cc3c(cn2)cc(-c2cnn(C)c2)n3C)cc1` [Compound 137, N-(4-methoxyphenyl)-1-methyl-2-(1-methylpyrazol-4-yl)pyrrolo[3,2-c]pyridin-6-amine], the “2-NBDG Glucose Uptake [%]” value (C2C12 cells) was 69.73% and the Emax (beta-TC6 cells [2]) was 50 to 100%.

In the case of `Cn1c(-c2cccnc2)cc2c(Nc3cccc(C(F)(F)F)c3)nccc21` [Compound 243, 1-methyl-2-(3-pyridyl)-N-[3-(trifluoromethyl)phenyl]pyrrolo[3,2-c]pyridin-4-amine], the “Insulin release … [%]” value (beta-TC6 cells [1]) is reported as 142.26%, the “effect on the insulin release by beta-TC6 cells compared with the positive control Sunitinib” value (beta-TC6 cells [1]) is reported as “better effect on the insulin release by beta-TC6 cells than the positive control Sunitinib” and the “2-NBDG Glucose Uptake [%]” value (C2C12 cells) is reported as 48.87%. For the same compound, the Emax (beta-TC6 cells [2]) was 0 to 30%.

For `COc1ccccc1-c1cc2c(Nc3ccc(SC)cc3)nccc2n1C` [Compound 305, 2-(2-methoxyphenyl)-1-methyl-N-(4-methylsulfanylphenyl)pyrrolo[3,2-c]pyridin-4-amine], the “Insulin release … [%]” value (beta-TC6 cells [1]) was 20.24%, the “2-NBDG Glucose Uptake [%]” value (C2C12 cells) was 50.81% and the Emax (beta-TC6 cells [2]) was 30 to 50%.

`COc1ccc(-c2nc3c(Nc4ccc(OC)c(OC)c4)nccc3[nH]2)cc1` [Compound 392, N-(3,4-dimethoxyphenyl)-2-(4-methoxyphenyl)-1H-imidazo[4,5-c]pyridin-4-amine] was tested, and the “Insulin release … [%]” value (beta-TC6 cells [1]) was 30.52% and the Emax (beta-TC6 cells [2]) was 50 to 100%.

`COc1ccc(Nc2nccc3[nH]c(-c4cccc(OC)c4F)nc23)cc1` [Compound 475, 2-(2-fluoro-3-methoxy-phenyl)-N-(4-methoxyphenyl)-1H-imidazo[4,5-c]pyridin-4-amine] was tested, and the “Insulin release … [%]” value (beta-TC6 cells [1]) was 48.72% and the Emax (beta-TC6 cells [2]) was 50 to 100%.

For `COc1ccc(-c2cc3c(cn2)nc(NCc2ccccc2)n3C)cc1` [Compound 839, N-benzyl-6-(4-methoxyphenyl)-1-methyl-imidazo[4,5-c]pyridin-2-amine], the Emax (beta-TC6 cells [2]) was 30 to 50%.

With `Cn1c(NCc2ccccc2)nc2cnc(-c3cccs3)cc21` [Compound 841, N-benzyl-1-methyl-6-(2-thienyl)imidazo[4,5-c]pyridin-2-amine] the Emax (beta-TC6 cells [2]) was 30 to 50%.

`COc1ccc(-c2cc3c(cn2)nc(Nc2ccccc2)n3C)cc1` [Compound 847, 6-(4-methoxyphenyl)-1-methyl-N-phenyl-imidazo[4,5-c]pyridin-2-amine] showed an Emax (beta-TC6 cells [2]) of 30 to 50%.

`Cn1c(NCC2CCCO2)nc2cnc(-c3ccc4ccccc4c3)cc21` (stereo not shown) [Compound 850, 1-methyl-6-(2-naphthyl)-N-(tetrahydrofuran-2-ylmethyl)imidazo[4,5-c]pyridin-2-amine] showed an Emax (beta-TC6 cells [2]) of 30 to 50%.

With `Cn1c(NCC2CCCO2)nc2cnc(-c3cccc(Oc4ccccc4)c3)cc21` (stereo not shown) [Compound 851, 1-methyl-6-(3-phenoxyphenyl)-N-(tetrahydrofuran-2-ylmethyl)imidazo[4,5-c]pyridin-2-amine] the Emax (beta-TC6 cells [2]) was 30 to 50%.

`Cn1c(NCC2CCCO2)nc2cnc(-c3cccs3)cc21` (stereo not shown) [Compound 852, 1-methyl-N-(tetrahydrofuran-2-ylmethyl)-6-(2-thienyl)imidazo[4,5-c]pyridin-2-amine] showed an Emax (beta-TC6 cells [2]) of 30 to 50%.

With `COCCNc1nc2cnc(-c3cccc(OC(F)(F)F)c3)cc2n1C` [Compound 855, N-(2-methoxyethyl)-1-methyl-6-[3-(trifluoromethoxy)phenyl]imidazo[4,5-c]pyridin-2-amine] the Emax (beta-TC6 cells [2]) was 30 to 50%.

`COCCNc1nc2cnc(-c3ccc(OC)cc3C)cc2n1C` [Compound 859, N-(2-methoxyethyl)-6-(4-methoxy-2-methyl-phenyl)-1-methyl-imidazo[4,5-c]pyridin-2-amine] showed an Emax (beta-TC6 cells [2]) of 30 to 50%.

In the case of `COc1ccc(-c2cc3c(cn2)nc(NCc2cccnc2)n3C)cc1OC` [Compound 862, 6-(3,4-dimethoxyphenyl)-1-methyl-N-(3-pyridylmethyl)imidazo[4,5-c]pyridin-2-amine], the Emax (beta-TC6 cells [2]) is reported as 0 to 30%.

In the case of `COc1ccc(-c2cc3c(cn2)nc(NCc2ccccc2F)n3C)cc1OC` [Compound 865, 6-(3,4-dimethoxyphenyl)-N-[(2-fluorophenyl)methyl]-1-methyl-imidazo[4,5-c]pyridin-2-amine], the Emax (beta-TC6 cells [2]) is reported as 30 to 50%.

`Cn1c(NCc2ccccc2F)nc2cnc(-c3cccc(Cl)c3)cc21` [Compound 866, 6-(3-chlorophenyl)-N-[(2-fluorophenyl)methyl]-1-methyl-imidazo[4,5-c]pyridin-2-amine] showed an Emax (beta-TC6 cells [2]) of 30 to 50%.

Work on `Cn1c(NCc2ccccc2F)nc2cnc(-c3cccc(CO)c3)cc21` [Compound 868, [3-[2-[(2-fluorophenyl)methylamino]-1-methyl-imidazo[4,5-c]pyridin-6-yl]phenyl]methanol] yielded an Emax (beta-TC6 cells [2]) of 0 to 30%.

Work on `CNc1nc2cnc(-c3ccsc3)cc2n1Cc1ccc(OC)c(OC)c1` [Compound 877, 1-[(3,4-dimethoxyphenyl)methyl]-N-methyl-6-(3-thienyl)imidazo[4,5-c]pyridin-2-amine] yielded an Emax (beta-TC6 cells [2]) of 30 to 50%.

`CNc1nc2cnc(-c3ccc(O)c(OC)c3)cc2n1Cc1ccc(OC)c(OC)c1` [Compound 879, 4-[1-[(3,4-dimethoxyphenyl)methyl]-2-(methylamino)imidazo[4,5-c]pyridin-6-yl]-2-methoxy-phenol] showed an Emax (beta-TC6 cells [2]) of 30 to 50%.

Work on `CNc1nc2cnc(-c3cccs3)cc2n1Cc1ccc(OC)c(OC)c1` [Compound 880, 1-[(3,4-dimethoxyphenyl)methyl]-N-methyl-6-(2-thienyl)imidazo[4,5-c]pyridin-2-amine] yielded an Emax (beta-TC6 cells [2]) of 30 to 50%.

In the case of `COc1cncc(-c2cc3[nH]c(NCC4CCCO4)nc3cn2)c1` (stereo not shown) [Compound 881, 6-(5-methoxy-3-pyridyl)-N-(tetrahydrofuran-2-ylmethyl)-1H-imidazo[4,5-c]pyridin-2-amine], the Emax (beta-TC6 cells [2]) is reported as 0 to 30%.

`CNc1nc2cnc(-c3cccc4ccccc34)cc2n1-c1cccc(F)c1` [Compound 884, 1-(3-fluorophenyl)-N-methyl-6-(1-naphthyl)imidazo[4,5-c]pyridin-2-amine] was tested, and the Emax (beta-TC6 cells [2]) was 30 to 50%.

Work on `CNc1nc2cnc(-c3ccc4c(c3)OCO4)cc2n1-c1cccc(F)c1` [Compound 885, 6-(1,3-benzodioxol-5-yl)-1-(3-fluorophenyl)-N-methyl-imidazo[4,5-c]pyridin-2-amine] yielded an Emax (beta-TC6 cells [2]) of 0 to 30%.

Work on `CNc1nc2cnc(-c3ccc(O)c(OC)c3)cc2n1-c1cccc(F)c1` [Compound 888, 4-[1-(3-fluorophenyl)-2-(methylamino)imidazo[4,5-c]pyridin-6-yl]-2-methoxy-phenol] yielded an Emax (beta-TC6 cells [2]) of 30 to 50%.

For `CCN(CC)CCNC(=O)c1c(C)[nH]c(/C=C2\C(=O)Nc3ccc(F)cc32)c1C` [Sunitinib], the “insulin release in low glucose media” value (beta-TC6 cells [3]) was 0.77 ± 0.03.
